Test results as given in patent publication US6685617B1, “Inhibitors of α4β1 mediated cell adhesion” (Pharmacia & Upjohn Company, priority 1998, dated 2004).
Counter-ions that a name gives are not always drawn.

Legend:
[1] = biological target: T1, α4β1 integrin (Jurkat cell adhesion to immobilized CS-1 derived peptide CLHPGEILDVPST) (Homo sapiens, UniProt P05556+P13612); experiment: Jurkat-CS-1 assay; format: cell-based; conditions: Jurkat cells on CS-1 peptide coated plates; read-out: JK/CS-1 (Jurkat CS-1 Assay IC50 value range)
T1 construct: 100 μl of Jurkat cells (2.5×10^6 cells/ml) in DMEM plus BSA; host or cells: Jurkat T-cell line
Summary of the method: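 CS-1 peptide was SPDP-crosslinked onto HSA-coated plates and blocked with BSA. Jurkat cells (2.5×10^6 cells/ml) in DMEM/BSA were mixed with compound, generally at 100, 20, 5 and 1.25 μM, and allowed to adhere for 1 hr at 37° C. Bound cells were fixed, stained with toluidine blue and quantified by OD590.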

[2] = biological target: T2, α4β1 integrin (Jurkat T-cell adhesion to IL-1 stimulated endothelial cell monolayers) (Homo sapiens, UniProt P05556+P13612); experiment: Jurkat-endothelial cell adhesion assay (Jurkat EC); format: cell-based; conditions: Jurkat cells on IL-1 stimulated human umbilical vein endothelial cells; read-out: JK/EC (Jurkat EC Assay IC50 value range)
T2 construct: a T-cell line, Jurkat, known to express the α4β1 integrin; host or cells: Jurkat T-cell line
Summary of the method: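 BCECF-AM-labelled Jurkat cells were mixed with compound, generally 100, 20, 5 and 1.25 μM, and added to HUVEC monolayers (passage ≤6) pre-stimulated 4 hr at 37° C with 0.1 ng/ml IL-1. After 5 min on ice and 20 min at 37° C, washed wells were read by fluorescence as % adhesion relative to no compound.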

T1 sequence (P13612 34-1032): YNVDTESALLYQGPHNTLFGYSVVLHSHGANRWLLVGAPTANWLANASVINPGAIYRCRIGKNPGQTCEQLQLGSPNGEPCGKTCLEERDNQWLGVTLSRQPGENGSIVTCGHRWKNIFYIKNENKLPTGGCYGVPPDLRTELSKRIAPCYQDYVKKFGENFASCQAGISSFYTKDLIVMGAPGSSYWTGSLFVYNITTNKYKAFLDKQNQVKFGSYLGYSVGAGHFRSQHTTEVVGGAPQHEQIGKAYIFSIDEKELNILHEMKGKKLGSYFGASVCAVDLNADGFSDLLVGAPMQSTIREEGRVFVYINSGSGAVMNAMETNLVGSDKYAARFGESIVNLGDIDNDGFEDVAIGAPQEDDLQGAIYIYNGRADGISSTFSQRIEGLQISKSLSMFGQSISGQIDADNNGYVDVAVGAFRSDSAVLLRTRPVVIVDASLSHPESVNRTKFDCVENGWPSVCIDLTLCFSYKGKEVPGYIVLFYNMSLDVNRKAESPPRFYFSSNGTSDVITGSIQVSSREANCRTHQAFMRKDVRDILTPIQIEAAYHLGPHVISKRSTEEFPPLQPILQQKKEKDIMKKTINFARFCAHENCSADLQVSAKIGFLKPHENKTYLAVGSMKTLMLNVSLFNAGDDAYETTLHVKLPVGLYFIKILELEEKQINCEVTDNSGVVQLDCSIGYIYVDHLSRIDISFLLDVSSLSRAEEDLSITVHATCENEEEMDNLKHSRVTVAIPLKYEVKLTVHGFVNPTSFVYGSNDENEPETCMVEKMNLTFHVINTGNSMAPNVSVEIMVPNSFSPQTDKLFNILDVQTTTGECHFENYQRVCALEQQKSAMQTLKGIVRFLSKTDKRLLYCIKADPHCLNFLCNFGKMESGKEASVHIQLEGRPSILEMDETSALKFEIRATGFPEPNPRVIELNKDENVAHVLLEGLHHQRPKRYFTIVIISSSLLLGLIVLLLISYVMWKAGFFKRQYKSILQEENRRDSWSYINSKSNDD
T1 sequence (P05556 21-798): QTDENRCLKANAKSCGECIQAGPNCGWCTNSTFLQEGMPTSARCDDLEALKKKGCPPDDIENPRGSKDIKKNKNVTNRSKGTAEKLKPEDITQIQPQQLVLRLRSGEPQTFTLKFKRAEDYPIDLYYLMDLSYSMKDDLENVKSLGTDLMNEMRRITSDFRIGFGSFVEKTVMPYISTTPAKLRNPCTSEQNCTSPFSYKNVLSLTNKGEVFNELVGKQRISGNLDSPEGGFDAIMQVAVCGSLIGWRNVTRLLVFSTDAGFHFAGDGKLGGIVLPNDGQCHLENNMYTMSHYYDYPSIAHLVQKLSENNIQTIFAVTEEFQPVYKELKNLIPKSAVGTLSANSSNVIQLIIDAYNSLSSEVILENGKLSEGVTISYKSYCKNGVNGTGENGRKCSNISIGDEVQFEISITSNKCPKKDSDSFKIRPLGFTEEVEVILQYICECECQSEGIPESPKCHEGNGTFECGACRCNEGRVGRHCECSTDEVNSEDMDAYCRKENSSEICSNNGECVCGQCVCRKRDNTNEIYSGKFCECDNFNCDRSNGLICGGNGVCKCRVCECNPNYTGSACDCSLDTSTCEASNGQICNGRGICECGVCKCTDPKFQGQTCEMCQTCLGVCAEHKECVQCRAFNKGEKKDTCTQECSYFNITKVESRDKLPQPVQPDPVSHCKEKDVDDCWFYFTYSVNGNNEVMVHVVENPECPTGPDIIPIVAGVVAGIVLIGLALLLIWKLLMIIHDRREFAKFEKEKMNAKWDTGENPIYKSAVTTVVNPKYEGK
T2 sequence (P13612 34-1032): as the sequence (P13612 34-1032) above
T2 sequence (P05556 21-798): as the sequence (P05556 21-798) above

Row | SMILES | IC50 [1] | IC50 [2]
1 | O=C(Nc1ccc(C[C@H](NC(=O)[C@@H]2CCCCN2C(=O)c2cc(O)c3ccccc3n2)C(=O)O)cc1)c1c(Cl)cccc1Cl [Example 188] | 0.05 to 0.75 µM | ≥ 1 µM
2 | COC(=O)[C@H](Cc1ccc(NC(=O)c2c(Cl)cccc2Cl)cc1)NC(=O)[C@H]1CSCN1C(=O)OCc1ccccn1 (relative stereo) [Example 148, [S-(R*,R*)]-4-[[[1-[[4-[(2,6-Dichlorobenzoyl)amino]phenyl]methyl]-2-methoxy-2-oxoethyl]amino]carbonyl]-3-thiazolidinecarboxylic Acid 3-(2-Pyridinylmethyl)ester] | ≤ 0.05 µM | ≤ 0.25 µM
3 | COC(=O)[C@H](Cc1ccc(OCc2c(Cl)cccc2Cl)cc1)NC(=O)[C@H]1CSCN1C(=O)OC(C)(C)C (relative stereo) [Example 32, [S-(R*,R*)]-4-[[[1-[4-[(2,6-Dichlorophenyl)methoxy]phenyl]methyl]-2-methoxy-2-oxoethyl]amino]carbonyl]-3-thiazolidinecarboxylic Acid 3-(1,1-Dimethylethyl)ester] | ≥ 0.75 µM | ≥ 1 µM
4 | O=C(O)CCC(=O)N1CCSCCC1C(=O)N[C@@H](Cc1ccc(NC(=O)c2c(Cl)cccc2Cl)cc1)C(=O)O (stereo partly drawn) [Example 267, 5-[[[(1S)-1-Carboxy-2-[4-[(2,6-dichlorobenzoyl)amino]phenyl]ethyl]amino]carbonyl]-tetrahydro-γ-oxo-1,4-thiazepine-4(5H)-butanoic Acid] | 0.05 to 0.75 µM | ≥ 1 µM
5 | CC(C)(C)OC(=O)N1CSCC1C(=O)NC(Cc1ccc(OCc2c(Cl)cccc2Cl)cn1)C(=O)O (stereo not drawn) [Example 121, [S-(R*,R*)]-4-[[[1-Carboxy-2-[3-[(2,6-dihlorophenyl)methoxy]-6-pyridyl]ethyl]amino]carbonyl]-3-thiazolidinecarboxylic Acid (1,1-Dimethylethyl)ester] | 0.05 to 0.75 µM | ≥ 1 µM
6 | COC(=O)[C@H](Cc1ccc(NC(=O)c2c(Cl)cccc2Cl)cc1)NC(=O)[C@H]1N(C(=O)OC(C)(C)C)CSC1(C)C (relative stereo) [Example 17, [R-(R*,S*)]-4-[[[1-[[4-[(2,6-Dichlorobenzoyl)amino]phenyl]methyl]-2-methoxy-2-oxoethyl]amino]carbonyl]-5,5-dimethyl-3-thiazolidinecarboxylic Acid 3-(1,1-Dimethylethyl)ester] | ≥ 0.75 µM | ≥ 1 µM
7 | O=C(O)CCC(=O)N1CSC[C@@H]1C(=O)N[C@@H](Cc1ccc(NC(=O)c2c(Cl)cccc2Cl)cc1)C(=O)O (relative stereo) [Example 9, [S-(R*,R*)]-4-[[[1-Carboxy-2-[4-[(2,6-dichlorobenzoyl)amino]phenyl]ethyl]amino]carbonyl]-γ-oxo-3-thiazolidinebutanoic Acid] | ≤ 0.05 µM | ≤ 0.25 µM
8 | O=C(O)c1cccc(C(=O)N2CSC[C@@H]2C(=O)N[C@@H](Cc2ccc(NC(=O)c3c(Cl)cccc3Cl)cc2)C(=O)O)n1 [Example 264] | ≤ 0.05 µM | ≤ 0.25 µM
9 | O=C(Nc1ccc(C[C@H](NC(=O)C2CCCN(C(=O)C3CCCC(C(=O)O)C3)C2)C(=O)O)cc1)c1c(Cl)cccc1Cl (stereo partly drawn) [Example 200] | 0.05 to 0.75 µM | ≥ 1 µM
10 | O=C(O)c1cc(C(=O)N2CCCC[C@H]2C(=O)N[C@@H](Cc2ccc(NC(=O)c3c(Cl)cccc3Cl)cc2)C(=O)O)n[nH]1 [Example 189] | 0.05 to 0.75 µM | ≥ 1 µM
11 | O=C(O)c1cccc(C(=O)N2CCCC[C@H]2C(=O)N[C@@H](Cc2ccc(NC(=O)c3c(Cl)cccc3Cl)cc2)C(=O)O)c1 [Example 182] | 0.05 to 0.75 µM | 0.25 to 1 µM
12 | O=C(O)CC1(CC(=O)N2CCC[C@H]2C(=O)N[C@@H](Cc2ccc(NC(=O)c3c(Cl)cccc3Cl)cc2)C(=O)O)CCCC1 [Example 225] | 0.05 to 0.75 µM | ≥ 1 µM
13 | COC(=O)[C@H](Cc1ccc(NC(=O)c2c(Cl)cccc2Cl)cc1)NC(=O)[C@H]1CSC(C)(C)N1C(=O)OC(C)(C)C (relative stereo) [Example 75, [S-(R*,R*)]-4-[[[1-[[4-[(2,6-Dichlorobenzoyl)amino]phenyl]methyl]-2-methoxy-2-oxo-ethyl]amino]carbonyl]-2,2-dimethyl-3-thiazolidinecarboxylic Acid 3-(1,1-Dimethylethyl)ester] | ≥ 0.75 µM | ≥ 1 µM
14 | CCOC(=O)N1[C@@H](C(=O)N[C@@H](Cc2ccc(OCc3c(Cl)cccc3Cl)cc2)C(=O)O)CSC12CCN(C)CC2 (relative stereo) [Example 155, [S-(R*,R*)]-3-[[[1-Carboxy-2-[4-[(2,6-dichlorophenyl)methoxy]phenyl]ethyl]amino]carbonyl]-8-methyl-1-thia-4,8-diazaspiro[4.5]decane-4-carboxylic Acid 4-Ethyl Ester] | ≥ 0.75 µM | ≥ 1 µM
15 | COC(=O)[C@H](Cc1ccc(NC(=O)c2c(Cl)cccc2Cl)cc1)NC(=O)[C@H]1COCN1C(=O)OCc1ccccc1 [Example 126, [R-(R*S*)]-4-[[[1-[[4-[(2,6-Dichlorobenzoyl)amino]phenyl]methyl]-2-methoxy-2-oxoethyl]amino]carbonyl]-3-oxazolidinecarboxylic Acid 3-Phenylmethyl Ester] | ≥ 0.75 µM | ≥ 1 µM
16 | CN(CCc1ccccn1)C(=O)N1CSC[C@@H]1C(=O)N[C@@H](Cc1ccc(NC(=O)c2c(Cl)cccc2Cl)cc1)C(=O)O [Example 55, 4-[(2,6-Dichlorobenzoyl)amino]-N-[[(4S)-3-[[methyl[2-(2-pyridinyl)ethyl]amino]carbonyl]-4-thiazolidinyl]carbonyl]-L-phenylalanine] | ≤ 0.05 µM | ≤ 0.25 µM
17 | COC(=O)[C@H](Cc1ccc(OCc2c(Cl)cccc2Cl)cc1)NC(=O)[C@H]1CSCN1C(C)=O [Example 65, N-[[(4S)-3-Acetyl-4-thiazolidinyl]carbonyl]-O-[(2,6-dichlorophenyl)methyl]-L-tyrosine Methyl Ester] | 0.05 to 0.75 µM | ≥ 1 µM
18 | O=C(Nc1ccc(C[C@H](NC(=O)[C@H]2CSCN2C(=O)OCC2c3ccccc3-c3ccccc32)C(=O)O)cc1)c1c(Cl)cccc1Cl (relative stereo) [Example 19] | 0.05 to 0.75 µM | ≤ 0.25 µM
19 | O=C(Nc1ccc(C[C@H](NC(=O)C2CNC2)C(=O)O)cc1)c1c(Cl)cccc1Cl [Example 147, N-[[3-Azetidinyl]carbonyl]-4-[(2,6-dichlorobenzoyl)amino]-L-phenylalanine, Trifluoroacetic Acid Salt] | ≥ 0.75 µM | ≥ 1 µM
20 | O=C(Nc1ccc(C[C@H](NC(=O)[C@H]2CSCN2C(=O)C2CCCO2)C(=O)O)cc1)c1c(Cl)cccc1Cl (stereo partly drawn) [Example 266] | ≤ 0.05 µM | ≤ 0.25 µM
21 | O=C(Nc1ccc(C[C@H](NC(=O)[C@@H]2CSCN2C(=O)C2CCOC2)C(=O)O)cc1)c1c(Cl)cccc1Cl (stereo partly drawn) [Example 246] | 0.05 to 0.75 µM | 0.25 to 1 µM
22 | CN1C(=O)CCC1(CCC(=O)O)CCC(=O)N[C@@H](Cc1ccc(OCc2c(Cl)cccc2Cl)cc1)C(=O)O (stereo partly drawn) [Example 107, 2-[3-[[(1S)-1-Carboxy-2-[4-[(2,6-dichlorophenyl)methoxy]phenyl]ethyl]amino]-3-oxo-propyl]-1-methyl-5-oxo-2-pyrrolidinepropanoic Acid] | 0.05 to 0.75 µM | ≥ 1 µM
23 | COCCC(=O)N1CSC[C@@H]1C(=O)N[C@@H](Cc1ccc(NC(=O)c2c(Cl)cccc2Cl)cc1)C(=O)O [Example 262] | ≤ 0.05 µM | ≤ 0.25 µM
24 | O=C(O)c1cccc(C(=O)N2CCC[C@@H]2C(=O)N[C@@H](Cc2ccc(NC(=O)c3c(Cl)cccc3Cl)cc2)C(=O)O)n1 [Example 258] | ≤ 0.05 µM | ≤ 0.25 µM
25 | COC(=O)[C@H](Cc1ccc(NC(=O)c2c(Cl)cccc2Cl)cc1)NC(=O)[C@H]1CSCN1C(=O)OCCN1CCOCC1 (relative stereo) [Example 24, [S-(R*,R*)]-4-[[[1-[[4-[(2,6-Dichlorobenzoyl)amino]phenyl]methyl]-2-methoxy-2-oxoethyl]amino]carbonyl]-3-thiazolidinecarboxylic Acid 3-[2-(4-Morpholinyl)ethyl]ester] | 0.05 to 0.75 µM | 0.25 to 1 µM
26 | O=C(O)CC1(CC(=O)N2CCCC(C(=O)N[C@@H](Cc3ccc(NC(=O)c4c(Cl)cccc4Cl)cc3)C(=O)O)C2)CCCC1 (stereo partly drawn) [Example 195] | 0.05 to 0.75 µM | ≥ 1 µM
27 | COC(=O)[C@H](Cc1ccc(OCc2c(Cl)cccc2Cl)cc1)NC(=O)[C@H]1CSCN1C(=O)OCCN1CCCCC1 (relative stereo) [Example 5, [S-(R*,R*)]-4-[[[1-[4-[(2,6-Dichlorophenyl)methoxy]phenyl)methyl]-2-methoxy-2-oxoethyl]amino]carbonyl]-3-thiazolidinecarboxylic Acid 3-[2-(1-piperidinyl)ethyl]ester] | 0.05 to 0.75 µM | 0.25 to 1 µM
28 | COCCC(=O)N1CCCC[C@@H]1C(=O)N[C@@H](Cc1ccc(NC(=O)c2c(Cl)cccc2Cl)cc1)C(=O)O [Example 249] | 0.05 to 0.75 µM | 0.25 to 1 µM
29 | COC(=O)[C@H](Cc1ccc(NC(=O)c2c(Cl)cccc2Cl)cc1)NC(=O)[C@H]1CSCN1C(C)=O [Example 61, N-[[(4S)-3-Acetyl-4-thiazolidinyl]carbonyl]-4-[(2,6-dichlorobenzoyl)amino]-L-phenylalanine Methyl Ester] | 0.05 to 0.75 µM | 0.25 to 1 µM
30 | CC(=O)CCC(=O)N1CCC[C@H]1C(=O)N[C@@H](Cc1ccc(NC(=O)c2c(Cl)cccc2Cl)cc1)C(=O)O [Example 231] | 0.05 to 0.75 µM | ≥ 1 µM
